Data set [1] deals with C. elegans (N2) complex I (NADH:ubiquinone oxidoreductase) (Caenorhabditis elegans, UniProt P24887+Q93873+Q94360). Nature of the data set: biochemical. The following applies: for % Activity Complex I: 100 µM compound, relative to solvent control, mean (SEM); for Percent in vitro activity, Complex I (single replicate Rep1-Rep4) / Percent in vitro activity, Complex I (Mean): 100 μM of NPD compound, C. elegans mitochondria; for Percent in vitro activity, Complex I (single replicate Rep1-Rep4): individual biological replicates; for Percent in vitro activity, Complex I (Mean): mean of four biological replicates. It is filed as biochemical. In outline:
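Complex I rate: initial linear slope of A600 over 15 min, expressed as percent of solvent control. Triple freeze-thawed mitochondria (0.2 mg/mL) in KPi pH 7.5, BSA 3 mg/mL, NADH 80 μM, decylubiquinone 60 μM, DCIP 160 μM, antimycin A, KCN.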

A further data set relates to C. elegans. Nature of the data set: C. elegans chemical screens of RIKEN NPD libraries at 50 μM (hit identification in KCN survival and development/viability assays). In kind it is cell-based, Caenorhabditis elegans. The following applies: screened at 50 μM in triplicate; hit = modified z-score < −3; KCN = KCN survival assay, Dev. & Viability = development/viability assay.

The subject of data set [2] is C. elegans complex III (decylubiquinol-cytochrome C reductase). Nature of the data set: In vitro complex III activity assay, C. elegans mitochondria. In kind it is biochemical, Caenorhabditis elegans. The following applies: for % Activity Complex III: 100 µM compound, relative to solvent control, mean (SEM); for Percent in vitro activity, Complex III (single replicate Rep1-Rep4) / Percent in vitro activity, Complex III (Mean): 100 μM of NPD compound, C. elegans mitochondria; for Percent in vitro activity, Complex III (single replicate Rep1-Rep4): individual biological replicates; for Percent in vitro activity, Complex III (Mean): mean of four biological replicates. How it is done:
(§1) Mitochondria were isolated from the following free-living nematode strains: C. elegans—N2, CB3474, ECA882, ECA917, ECA1075, ECA1080; C. briggsae—AF16; P. pacificus—PS312; and P. hermaphrodita—B178. With the exception of the P. hermaphrodita strain B178, adult worms of each strain were grown in bulk through liquid culture to obtain mitochondria in sufficient quantities. Due to poor growth in liquid media, mixed stage populations of P. hermaphrodita were washed off and collected from NGM plates seeded with OP50. The isolation of mitochondria from all free-living nematode strains followed the protocol previously outlined in Burns et al.[24]. In brief, a 1 L saturated culture of E. coli HB101 was concentrated 20-fold in 50 mL complete S-medium. ~500,000 L1 worms synchronized from an embryo preparation performed the day prior were added to the S-media/HB101 suspension and grown to adulthood over the course of 3.5 days at 20 °C with shaking at 165 rpm. Following growth, worms were collected in 10 ×15 mL conical tubes and washed 7 times in M9 buffer. Worm suspensions were then combined into a single 15 mL conical tube and diluted to a final volume of 15 mL with M9 buffer. 1 mL aliquots of worm suspension were then distributed to 15 × 1.5 mL screw-cap microcentrifuge tubes and were pelleted at 500 g for 1 min. Excess M9 was aspirated without disturbing the worm pellet. 600 μL ice-cold isolate buffer A (250 mM sucrose, 10 mM Tris (pH 7.5), 1 mM EDTA, 1 mM PMSF (freshly prepared)) and 300 μL cold glass beads were then added to each tube. Tubes were incubated on ice for 10 min, and the worms were then lysed by bead beating (6 x 30 s, with 1 min cooling intervals). Tubes containing worm lysate were centrifuged at 1,000 g for 10 min at 4 °C and the supernatant was transferred to 15 new microcentrifuge tubes on ice. The tubes were centrifuged a second time at 1,000 g for 10 min at 4 °C and the supernatant was once again transferred to 15 new microcentrifuge tubes on ice. These tubes were then centrifuged at 16,000 g for 10 min at 4 °C. The resulting mitochondrial pellet was washed twice by re-suspension in 300 μL of ice-cold isolate buffer B (250 mM sucrose, 10 mM Tris (pH 7.5), 1 mM EDTA). Following the final wash, isolation buffer was aspirated from each tube and the pellets were flash-frozen in ethanol/dry ice and stored at −80 °C until needed.
(§2) The enzymatic activities of individual ETC complexes (I-IV) were assessed spectrophotometrically in isolated mitochondria using a Varioskan LUX Multimode plate reader (ThermoFisher Scientific). Mitochondrial pellets previously isolated were thawed on ice and resuspended in ice-cold isolation buffer (250 mM sucrose, 10 mM Tris (pH 7.5), 1 mM EDTA). The BCA assay (Walker, 1994) was used to quantify the protein concentration of mitochondria suspensions; solutions were diluted to a concentration of 0.2 mg/mL for use in all assays. For the complex I assay, mitochondria pellets were freeze-thawed on ice three times to increase enzyme accessibility. […] 20 μL mitochondria suspension was then added/mixed with a pipette to initiate the reaction. Immediately following the addition of mitochondria, absorbance was measured (complex I and II: 600 nm; complex III and IV: 550 nm) in 30 s intervals over 15 min. Enzymatic activity was determined in each reaction by plotting absorbance versus time and calculating the slope of the curve during the initial linear phase of the reaction. […] Percent activity of each complex was calculated by dividing the enzyme-specific activity of each well by the enzyme-specific activity of the corresponding solvent controls.
Antimycin A-sensitive complex III (decylubiquinol-cytochrome C […]) activity was determined by measuring the reduction of cytochrome C (CytC) as optimized in Luo et al.[59]. Decylubiquinol for complex III assays was prepared fresh as described in Janssen and Boyle, 2019[60].

The test system of data set [3] is C. elegans complex IV (cytochrome C oxidase). Nature of the data set: In vitro complex IV activity assay, C. elegans mitochondria. In kind it is biochemical, Caenorhabditis elegans. The following applies: for % Activity Complex IV: 100 µM compound, relative to solvent control, mean (SEM); for Percent in vitro activity, Complex IV (single replicate Rep1-Rep4) / Percent in vitro activity, Complex IV (Mean): 100 μM of NPD compound, C. elegans mitochondria; for Percent in vitro activity, Complex IV (single replicate Rep1-Rep4): individual biological replicates; for Percent in vitro activity, Complex IV (Mean): mean of four biological replicates. How it is done: as §1, §2
Complex IV (cytochrome C oxidase) activity was determined by following the oxidation of CytC in the protocol outlined by Janssen and Boyle, 2019[60]. Reduced CytC was prepared fresh by adding 1 μL increments of 1 M dithiothreitol to a 1 mM solution of CytC and vortexing. A colour change from brown to orange/pink signals when CytC has been reduced.

In the next data set the test system is L1 wild-type C. elegans. The following applies: for LC50: caenorhabditis elegans.
The test system of another data set is HEK293 cells. The following applies: for CC50: read-out: HEK293 Cell Viability Assay LC50, 2 days exposure.
Data set [4] concerns the target C. elegans complex II (succinate dehydrogenase) (Caenorhabditis elegans, UniProt O62215+P41956+Q09545). Kind of data set: In vitro complex II activity assay, C. elegans mitochondria. In kind it is biochemical. The following applies: for % Activity Complex II: 100 µM compound, relative to solvent control, mean (SEM); for Percent in vitro activity, Complex II (single replicate Rep1-Rep4) / Percent in vitro activity, Complex II (Mean): 100 μM of NPD compound, C. elegans mitochondria; for Percent in vitro activity, Complex II (single replicate Rep1-Rep4): individual biological replicates; for Percent in vitro activity, Complex II (Mean): mean of four biological replicates. In short, it runs like this: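 Mitochondria isolated from adult C. elegans were diluted to 0.2 mg/mL protein and assayed for complex II by the DCIP-coupled method. A600 was read every 30 s over 15 min, with initial linear slope expressed as percent of solvent control. Screening was at 100 μM (≥3 biological replicates), followed by dose-response.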

Where “and” joins values, the source holds several entries; their conditions need not be identical. Equal values may be shown once. A value given as a limit tells only on which side of the number the result lay.

We go through four compounds from PMC11079024, “Identification of a family of species-selective complex I inhibitors as potential anthelmintics” (Nature Communications, 2024).

Chain of C. elegans (N2) complex I (NADH:ubiquinone oxidoreductase) (Q94360 17-199): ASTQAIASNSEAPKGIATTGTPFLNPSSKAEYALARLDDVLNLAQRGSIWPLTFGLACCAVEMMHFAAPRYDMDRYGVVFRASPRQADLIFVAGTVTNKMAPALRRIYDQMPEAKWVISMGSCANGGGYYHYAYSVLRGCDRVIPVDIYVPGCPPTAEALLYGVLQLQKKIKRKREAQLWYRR
Chain of C. elegans (N2) complex I (NADH:ubiquinone oxidoreductase) (P24887 whole entry): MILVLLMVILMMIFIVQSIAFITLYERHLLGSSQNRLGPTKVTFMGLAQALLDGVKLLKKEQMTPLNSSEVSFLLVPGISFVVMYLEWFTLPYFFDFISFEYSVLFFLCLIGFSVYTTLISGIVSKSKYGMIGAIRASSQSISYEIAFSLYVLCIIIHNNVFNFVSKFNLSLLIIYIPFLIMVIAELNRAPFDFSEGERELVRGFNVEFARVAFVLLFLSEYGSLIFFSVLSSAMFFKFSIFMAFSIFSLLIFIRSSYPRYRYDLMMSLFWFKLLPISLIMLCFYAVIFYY
Chain of C. elegans (N2) complex I (NADH:ubiquinone oxidoreductase) (Q93873 31-482): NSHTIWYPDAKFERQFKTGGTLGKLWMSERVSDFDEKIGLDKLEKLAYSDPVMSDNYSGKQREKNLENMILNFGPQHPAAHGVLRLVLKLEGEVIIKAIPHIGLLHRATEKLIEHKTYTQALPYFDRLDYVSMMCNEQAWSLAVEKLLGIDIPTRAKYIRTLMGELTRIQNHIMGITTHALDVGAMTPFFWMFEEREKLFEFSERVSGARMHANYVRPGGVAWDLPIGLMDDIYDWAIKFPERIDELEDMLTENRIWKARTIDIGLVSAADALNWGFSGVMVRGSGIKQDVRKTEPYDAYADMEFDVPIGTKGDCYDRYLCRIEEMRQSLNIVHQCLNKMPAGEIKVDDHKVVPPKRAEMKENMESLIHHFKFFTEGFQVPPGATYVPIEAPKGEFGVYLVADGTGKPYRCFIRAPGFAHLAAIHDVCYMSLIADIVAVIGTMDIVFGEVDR
Chain of C. elegans complex II (succinate dehydrogenase) (P41956 30-182): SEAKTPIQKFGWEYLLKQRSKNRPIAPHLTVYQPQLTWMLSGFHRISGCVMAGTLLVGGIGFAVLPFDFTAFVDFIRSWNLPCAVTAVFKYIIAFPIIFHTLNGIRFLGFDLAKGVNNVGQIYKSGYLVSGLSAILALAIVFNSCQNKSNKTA
Chain of C. elegans complex II (succinate dehydrogenase) (Q09545 22-298): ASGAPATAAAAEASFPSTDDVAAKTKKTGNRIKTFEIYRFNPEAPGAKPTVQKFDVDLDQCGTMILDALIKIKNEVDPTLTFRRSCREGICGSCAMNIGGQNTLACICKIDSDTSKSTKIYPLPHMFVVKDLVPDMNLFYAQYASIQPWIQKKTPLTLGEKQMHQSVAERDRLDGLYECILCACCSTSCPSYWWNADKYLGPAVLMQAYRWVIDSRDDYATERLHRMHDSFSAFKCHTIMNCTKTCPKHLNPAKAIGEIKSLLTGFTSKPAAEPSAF
Chain of C. elegans complex II (succinate dehydrogenase) (Q09508 32-646, further chain): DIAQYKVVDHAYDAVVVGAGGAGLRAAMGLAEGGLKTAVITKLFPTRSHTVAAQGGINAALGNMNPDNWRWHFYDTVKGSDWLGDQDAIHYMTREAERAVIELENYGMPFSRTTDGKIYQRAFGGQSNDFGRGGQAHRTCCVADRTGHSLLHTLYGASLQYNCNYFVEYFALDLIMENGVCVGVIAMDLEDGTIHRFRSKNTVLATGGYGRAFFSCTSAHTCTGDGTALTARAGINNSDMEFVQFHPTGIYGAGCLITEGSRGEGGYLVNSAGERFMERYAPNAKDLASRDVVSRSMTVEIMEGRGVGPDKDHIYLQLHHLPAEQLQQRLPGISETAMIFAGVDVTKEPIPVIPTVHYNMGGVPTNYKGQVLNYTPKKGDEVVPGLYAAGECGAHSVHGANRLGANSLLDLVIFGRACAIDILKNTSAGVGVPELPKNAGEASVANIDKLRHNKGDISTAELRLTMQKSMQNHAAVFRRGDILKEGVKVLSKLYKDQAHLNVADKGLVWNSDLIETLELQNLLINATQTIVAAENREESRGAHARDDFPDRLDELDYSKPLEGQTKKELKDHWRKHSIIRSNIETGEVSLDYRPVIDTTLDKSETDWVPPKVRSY
Chain of C. elegans complex II (succinate dehydrogenase) (O62215 31-145): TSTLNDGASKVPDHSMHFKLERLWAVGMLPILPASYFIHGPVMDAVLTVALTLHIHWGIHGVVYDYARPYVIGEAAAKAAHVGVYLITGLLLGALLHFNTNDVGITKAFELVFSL

As a reminder, the LC50 is the concentration that kills 50% of the test population. A high value points to lower toxicity. On to `O=C(/C=C/c1ccccc1)/C=C/c1ccccc1` [FSL0005], for which, in data set [1], the “% Activity Complex I” value is on record as 91.90 (0.78) %; the “Percent in vitro activity, Complex I (single replicate Rep1-Rep4)” value was 93.303% and 89.704% and 95.600% and 88.991%; the “Percent in vitro activity, Complex I (Mean)” value (“Percent … Complex I (Mean)” for short) amounted to 91.900%. Also, the “Hit Type” value in the data set on C. elegans is listed as “KCN”. Further, in data set [2], the “% Activity Complex III” value was 103.92 (1.25) %; the “Percent in vitro activity, Complex III (single replicate Rep1-Rep4)” value is 104.719% and 106.444% and 107.817% and 96.693%; the “Percent in vitro activity, Complex III (Mean)” value (shortened to “Percent … Complex III (Mean)”) was 103.918%. Also, in data set [3], the “% Activity Complex IV” value is given as 92.29 (3.01) %; the “Percent in vitro activity, Complex IV (single replicate Rep1-Rep4)” value was 87.534% and 94.293% and 79.459% and 107.854%; the “Percent in vitro activity, Complex IV (Mean)” value (from here on “Percent … Complex IV (Mean)”) is on record as 92.285%. In the data set with L1 wild-type C. elegans, the “C. elegans L1 relative motility, 3-hour post 200 µM KCN dilution” value is 0.000 and the 50% lethal concentration (LC50) worked out at 0.93 µM. Moreover, the CC50 in the data set on HEK293 cells is 7.48 µM. In addition, in data set [4], the “% Activity Complex II” value is listed as 80.91 (2.02) %; the “Percent in vitro activity, Complex II (single replicate Rep1-Rep4)” value is 88.395% and 79.227% and 70.277% and 85.744%; the “Percent in vitro activity, Complex II (Mean)” value (“Percent … Complex II (Mean)” below) is listed as 80.911%.
With `COc1ccc(N=c2cc(-c3ccc(OC)cc3)oc3ccc(O)cc23)cc1` [NPD8034], in data set [1], the “% Activity Complex I” value is 99.30 (2.57) %; the “Percent in vitro activity, Complex I (single replicate Rep1-Rep4)” value is 99.316% and 113.812% and 92.579% and 91.475%; the “Percent … Complex I (Mean)” value worked out at 99.295%. The “Hit Type” value with C. elegans is listed as “KCN”. Moreover, in data set [2], the “% Activity Complex III” value is recorded as 95.08 (1.51) %; the “Percent in vitro activity, Complex III (single replicate Rep1-Rep4)” value is 95.115% and 96.990% and 101.326% and 86.891%; the “Percent … Complex III (Mean)” value is given as 95.080%. Also, in data set [3], the “% Activity Complex IV” value is 96.04 (2.78) %; the “Percent in vitro activity, Complex IV (single replicate Rep1-Rep4)” value was 88.996% and 91.859% and 90.669% and 112.640%; the “Percent … Complex IV (Mean)” value is listed as 96.041%. This compound had an LC50 in the data set on L1 wild-type C. elegans of 12 µM. In the data set on HEK293 cells, the CC50 came out at 11.2 µM. Further, in data set [4], the “% Activity Complex II” value is on record as 89.02 (4.77) %; the “Percent in vitro activity, Complex II (single replicate Rep1-Rep4)” value was 117.368% and 83.101% and 77.239% and 78.358%; the “Percent … Complex II (Mean)” value is 89.016%.
For `Cc1cc(O)c(C(=O)/C=C/c2ccccc2)c(=O)o1` [NPD8366], in data set [1], the “% Activity Complex I” value is 102.66 (1.57) %; the “Percent in vitro activity, Complex I (single replicate Rep1-Rep4)” value is 109.574% and 101.002% and 105.233% and 94.820%; the “Percent … Complex I (Mean)” value is 102.657%. Besides, in the data set on C. elegans, the “Hit Type” value was “KCN”. Moreover, in data set [2], the “% Activity Complex III” value is 76.74 (1.10) %; the “Percent in vitro activity, Complex III (single replicate Rep1-Rep4)” value is 80.994% and 79.847% and 74.350% and 71.759%; the “Percent … Complex III (Mean)” value is 76.737%. In addition, in data set [3], the “% Activity Complex IV” value is given as 97.72 (2.77) %; the “Percent in vitro activity, Complex IV (single replicate Rep1-Rep4)” value is 88.563% and 105.997% and 87.809% and 108.514%; the “Percent … Complex IV (Mean)” value was 97.721%. In the data set with L1 wild-type C. elegans, the LC50 worked out at 11.6 µM. For the same compound, the CC50 in the data set on HEK293 cells amounted to 19.7 µM. Also, in data set [4], the “% Activity Complex II” value is on record as 86.41 (3.37) %; the “Percent in vitro activity, Complex II (single replicate Rep1-Rep4)” value was 86.839% and 91.030% and 67.920% and 99.847%; the “Percent … Complex II (Mean)” value was 86.409%.
Turning to `COc1ccc(-c2cc(=Nc3ccc(C)cc3)c3ccccc3o2)cc1OC` [NPD1450], in data set [1], the “% Activity Complex I” value is given as 84.47 (2.03) %; the “Percent in vitro activity, Complex I (single replicate Rep1-Rep4)” value is 79.543% and 95.426% and 77.236% and 85.664%; the “Percent … Complex I (Mean)” value is reported as 84.467%. The “Hit Type” value in the data set with C. elegans is given as “KCN”. In data set [2], the “% Activity Complex III” value is reported as 111.72 (0.94) %; the “Percent in vitro activity, Complex III (single replicate Rep1-Rep4)” value is 113.847% and 114.804% and 111.813% and 106.416%; the “Percent … Complex III (Mean)” value came to 111.720%. Moreover, in data set [3], the “% Activity Complex IV” value is recorded as 117.12 (3.30) %; the “Percent in vitro activity, Complex IV (single replicate Rep1-Rep4)” value is 109.749% and 111.295% and 110.581% and 136.859%; the “Percent … Complex IV (Mean)” value amounted to 117.121%. In addition, the 50% lethal concentration (LC50) with L1 wild-type C. elegans came out at 35.3 µM. For the same compound, in the data set with HEK293 cells, the HEK293 viability is given as 0.921 and the CC50 was more than 50 µM. Further, in data set [4], the “% Activity Complex II” value was 103.01 (4.34) %; the “Percent in vitro activity, Complex II (single replicate Rep1-Rep4)” value was 124.470% and 101.843% and 81.995% and 103.742%; the “Percent … Complex II (Mean)” value came out at 103.012%.
